Measured values reported in patent publication US20070142392A1, “Uses of rifamycins” (ActivBiotics, Inc., priority 2005, published 2007).
Values after ≈ are worked out from the molar mass of the structure shown.

Experiments:
Format in all cases: cell-based
S. aureus = experiment: MIC values, S. aureus (Tables 1-4)
S. pneumo. = experiment: MIC values, S. pneumo. (Tables 1-4)
H. flu = test system: H. flu
E. coli = experiment: MIC values, E. coli (Tables 1-4)
E. faecalis = experiment: MIC values, E. faecalis (Tables 1-4)

| Compound | MIC S. aureus (S. aureus) [µg/mL] | MIC S. pneumo. (S. pneumo.) [µg/mL] | MIC H. flu (H. flu) [µg/mL] | MIC E. coli (E. coli) [µg/mL] | MIC E. faecalis (E. faecalis) [µg/mL] | MIC F. faecalis (E. faecalis; Table 2) [µg/mL] |
| --- | --- | --- | --- | --- | --- | --- |
| CO[C@H]1/C=C/O[C@@]2(C)Oc3c(C)c(O)c4c(=O)c(c5oc6cc(N(C)CC(C)C)cc(O)c6nc-5c4c3C2=O)NC(=O)/C(C)=C\C=C\[C@H](C)[C@H](O)[C@@H](C)[C@@H](O)[C@@H](C)[C@H](O)[C@@H]1C [Compound 128] | 0.015 (≈ 0.0178 µM) | 0.002 (≈ 0.00237 µM) | 0.5 (≈ 0.592 µM) | >8 | 0.5 (≈ 0.592 µM) | – |
| CO[C@H]1/C=C/O[C@@]2(C)Oc3c(C)c(O)c4c(=O)c(c5oc6cc(N(C)CCC#N)ccc6nc-5c4c3C2=O)NC(=O)/C(C)=C\C=C\[C@H](C)[C@H](O)[C@@H](C)[C@@H](O)[C@@H](C)[C@H](O)[C@@H]1C [Compound 130] | 0.06 (≈ 0.0727 µM) | 0.008 (≈ 0.0097 µM) | 0.12 (≈ 0.145 µM) | 8 (≈ 9.7 µM) | 0.5 (≈ 0.606 µM) | – |
| CO[C@H]1/C=C/O[C@@]2(C)Oc3c(C)c(O)c4c(=O)c(c5oc6cc(N7CCN(C(=O)C8CC8)CC7)cc(O)c6nc-5c4c3C2=O)NC(=O)/C(C)=C\C=C\[C@H](C)[C@H](O)[C@@H](C)[C@@H](O)[C@@H](C)[C@H](O)[C@@H]1C [Compound 110] | 0.015 (≈ 0.0165 µM) | 0.004 (≈ 0.00439 µM) | 0.25 (≈ 0.274 µM) | 8 (≈ 8.78 µM) | 0.5 (≈ 0.549 µM) | – |
| CO[C@H]1/C=C/O[C@@]2(C)Oc3c(C)c(O)c4c(=O)c(c5oc6cc(N7CC8CCC(C7)N8)cc(O)c6nc-5c4c3C2=O)NC(=O)/C(C)=C\C=C\[C@H](C)[C@H](O)[C@@H](C)[C@@H](O)[C@@H](C)[C@H](O)[C@@H]1C [Compound 146] | 0.015 (≈ 0.0173 µM) | 0.001 (≈ 0.00115 µM) | 0.25 (≈ 0.288 µM) | 4 (≈ 4.6 µM) | 0.12 (≈ 0.138 µM) | – |
| COC1C=COC2(C)Oc3c(C)c(O)c4c(=O)c(c5oc6cc(N7CC(C)OC(C)C7)cc(O)c6nc-5c4c3C2=O)NC(=O)C(C)=CC=CC(C)C(O)C(C)C(O)C(C)C(O)C1C (mixture of isomers) [Compound 117] | 0.015 | 0.002 | 0.25 | 8 | 0.25 | – |
| CO[C@H]1/C=C/O[C@@]2(C)Oc3c(C)c(O)c4c(=O)c(c5oc6cc(N7CCC(N8CCOCC8)CC7)cc(O)c6nc-5c4c3C2=O)NC(=O)/C(C)=C\C=C\[C@H](C)[C@H](O)[C@@H](C)[C@@H](O)[C@@H](C)[C@H](O)[C@@H]1C [Compound 11] | 0.004 (≈ 0.00431 µM) | 0.00012 (≈ 0.000129 µM) | 1 (≈ 1.08 µM) | 4 (≈ 4.31 µM) | 0.25 (≈ 0.27 µM) | – |
| CC[C@H]1CN(c2cc(O)c3nc4c5c6c7c(C)c(O)c5c(=O)c(c-4oc3c2)NC(=O)/C(C)=C\C=C\[C@H](C)[C@H](O)[C@@H](C)[C@@H](O)[C@@H](C)[C@H](O)[C@H](C)[C@@H](OC)/C=C/O[C@@](C)(O7)C6=O)C[C@H](C)N1 [Compound 93] | 0.004 (≈ 0.00452 µM) | 0.00012 (≈ 0.000136 µM) | 0.25 (≈ 0.282 µM) | 4 (≈ 4.52 µM) | 0.5 (≈ 0.565 µM) | – |
| CO[C@H]1/C=C/O[C@@]2(C)Oc3c(C)c(O)c4c(=O)c(c5oc6cc(N7CCC(CNC(C)=O)CC7)cc(O)c6nc-5c4c3C2=O)NC(=O)/C(C)=C\C=C\[C@H](C)[C@H](O)[C@@H](C)[C@@H](O)[C@@H](C)[C@H](O)[C@@H]1C [Compound 56] | 0.004 (≈ 0.00438 µM) | 0.001 (≈ 0.0011 µM) | 0.25 (≈ 0.274 µM) | 8 (≈ 8.76 µM) | 0.12 (≈ 0.131 µM) | – |
| CO[C@H]1/C=C/O[C@@]2(C)Oc3c(C)c(O)c4c(=O)c(c5n(C)c6ccccc6nc-5c4c3C2=O)NC(=O)/C(C)=C\C=C\[C@H](C)[C@H](O)[C@@H](C)[C@@H](O)[C@@H](C)[C@H](O)[C@@H]1C [Compound 134] | 0.5 (≈ 0.661 µM) | 0.5 (≈ 0.661 µM) | 2 (≈ 2.65 µM) | 8 (≈ 10.6 µM) | 2 (≈ 2.65 µM) | – |
| CO[C@H]1/C=C/O[C@@]2(C)Oc3c(C)c(O)c4c(=O)c(c5oc6cc(N7CCN(c8ncccn8)CC7)cc(O)c6nc-5c4c3C2=O)NC(=O)/C(C)=C\C=C\[C@H](C)[C@H](O)[C@@H](C)[C@@H](O)[C@@H](C)[C@H](O)[C@@H]1C [Compound 106] | 0.004 (≈ 0.00434 µM) | 0.0005 (≈ 0.000543 µM) | 0.12 (≈ 0.13 µM) | >8 | 0.25 (≈ 0.271 µM) | – |
| CO[C@H]1/C=C/O[C@@]2(C)Oc3c(C)c(O)c4c(=O)c(c5oc6cc(N7CCC(C)(N(C)C)CC7)cc(O)c6nc-5c4c3C2=O)NC(=O)/C(C)=C\C=C\[C@H](C)[C@H](O)[C@@H](C)[C@@H](O)[C@@H](C)[C@H](O)[C@@H]1C [Compound 73] | 0.002 (≈ 0.00222 µM) | 0.00025 (≈ 0.000278 µM) | 0.12 (≈ 0.133 µM) | 2 (≈ 2.22 µM) | 0.03 (≈ 0.0334 µM) | – |
| CO[C@H]1/C=C/O[C@@]2(C)Oc3c(C)c(O)c4c(=O)c(c5oc6cc(N7CCN(Cc8ccccc8)CC7)cc(O)c6nc-5c4c3C2=O)NC(=O)/C(C)=C\C=C\[C@H](C)[C@H](O)[C@@H](C)[C@@H](O)[C@@H](C)[C@H](O)[C@@H]1C [Compound 89] | 0.03 (≈ 0.0322 µM) | 0.001 (≈ 0.00107 µM) | 8 (≈ 8.57 µM) | >8 | >8 | – |
| CO[C@H]1/C=C/O[C@@]2(C)Oc3c(C)c(O)c4c(=O)c(c5oc6cc(N7CCCC7)c(C)c(C)c6nc-5c4c3C2=O)NC(=O)/C(C)=C\C=C\[C@H](C)[C@H](O)[C@@H](C)[C@@H](O)[C@@H](C)[C@H](O)[C@@H]1C [Compound 120] | 0.5 (≈ 0.595 µM) | 0.06 (≈ 0.0714 µM) | 1 (≈ 1.19 µM) | >8 | 4 (≈ 4.76 µM) | – |
| CO[C@H]1/C=C/O[C@@]2(C)Oc3c(C)c(O)c4c(=O)c(c5oc6cccc(O)c6nc-5c4c3C2=O)NC(=O)/C(C)=C\C=C\[C@H](C)[C@H](O)[C@@H](C)[C@@H](O)[C@@H](C)[C@H](O)[C@@H]1C [Compound 136] | 0.004 (≈ 0.00527 µM) | 0.002 (≈ 0.00264 µM) | 0.25 (≈ 0.329 µM) | 8 (≈ 10.5 µM) | 0.12 (≈ 0.158 µM) | – |
| CO[C@H]1/C=C/O[C@@]2(C)Oc3c(C)c(O)c4c(=O)c(c5sc6cc(N7CCN(C)CC7)ccc6nc-5c4c3C2=O)NC(=O)/C(C)=C\C=C\[C@H](C)[C@H](O)[C@@H](C)[C@@H](O)[C@@H](C)[C@H](O)[C@@H]1C [Compound 104] | 0.002 (≈ 0.00233 µM) | 0.00012 (≈ 0.00014 µM) | 0.12 (≈ 0.14 µM) | 2 (≈ 2.33 µM) | 0.12 (≈ 0.14 µM) | – |
| CCOc1c(N2CCN(CCOC)CC2)cc(N2CCN(CCOC)CC2)c2nc3c4c5c6c(C)c(O)c4c(=O)c(c-3oc12)NC(=O)/C(C)=C\C=C\[C@H](C)[C@H](O)[C@@H](C)[C@@H](O)[C@@H](C)[C@H](O)[C@H](C)[C@@H](OC)/C=C/O[C@@](C)(O6)C5=O [Compound 95] | 0.12 (≈ 0.112 µM) | 0.001 (≈ 0.000933 µM) | 2 (≈ 1.87 µM) | >8 | 8 (≈ 7.47 µM) | – |
| CO[C@H]1/C=C/O[C@@]2(C)Oc3c(C)c(O)c4c(=O)c(c5oc6c(F)cc(F)cc6nc-5c4c3C2=O)NC(=O)/C(C)=C\C=C\[C@H](C)[C@H](O)[C@@H](C)[C@@H](O)[C@@H](C)[C@H](O)[C@@H]1C [Compound 137] | 0.12 (≈ 0.154 µM) | – | 2 (≈ 2.57 µM) | >8 | 1 (≈ 1.28 µM) | – |
| CO[C@H]1/C=C/O[C@@]2(C)Oc3c(C)c(O)c4c(=O)c(c5oc6cc(N7CCN(c8ccccc8)CC7)cc(O)c6nc-5c4c3C2=O)NC(=O)/C(C)=C\C=C\[C@H](C)[C@H](O)[C@@H](C)[C@@H](O)[C@@H](C)[C@H](O)[C@@H]1C [Compound 102] | 0.004 (≈ 0.00435 µM) | – | 0.25 (≈ 0.272 µM) | 4 (≈ 4.35 µM) | 0.06 (≈ 0.0653 µM) | – |
| CO[C@H]1/C=C/O[C@@]2(C)Oc3c(C)c(O)c4c(=O)c(c5oc6c7c(cc(O)c6nc-5c4c3C2=O)N(Cc2ccccc2)CCN7Cc2ccccc2)NC(=O)/C(C)=C\C=C\[C@H](C)[C@H](O)[C@@H](C)[C@@H](O)[C@@H](C)[C@H](OC(C)=O)[C@@H]1C [Compound 85] | 2 (≈ 1.93 µM) | – | >8 | >8 | – | 8 (≈ 7.71 µM) |
| COC1C=COC2(C)Oc3c(C)c(O)c4c(=O)c(c5oc6cc(N7CC(C)CC(C)C7)cc(O)c6nc-5c4c3C2=O)NC(=O)C(C)=CC=CC(C)C(O)C(C)C(O)C(C)C(O)C1C (mixture of isomers) [Compound 116] | 0.008 | 0.002 | 0.12 | – | 1 | – |
